Data: ChEMBL document CHEMBL3758177, “Synthesis and biological evaluation of novel phosphoramidate derivatives of coumarin as chitin synthase inhibitors and antifungal agents” (Eur J Med Chem, 2016)
Converted amounts (≈) assume the structure as drawn.

Tests used:
Escherichia coli = assay: Antibacterial activity against Escherichia coli JM 109 after 24 hrs by two-fold serial dilution method; assay type: functional; conditions: JM 109, 24 h
Proteus vulgaris = assay: Antibacterial activity against Proteus vulgaris ATCC 8427 after 24 hrs by two-fold serial dilution method; assay type: functional; conditions: ATCC 8427, 24 h
Bacillus spizizenii = assay: Antibacterial activity against Bacillus subtilis ATCC 6633 after 24 hrs by two-fold serial dilution method; assay type: functional; conditions: ATCC 6633, 24 h
Pseudomonas aeruginosa = assay: Antibacterial activity against Pseudomonas aeruginosa ATCC 9027 after 24 hrs by two-fold serial dilution method; assay type: functional; conditions: ATCC 9027, 24 h
Staphylococcus aureus [1] = assay: Antibacterial activity against Methicillin-resistant Staphylococcus aureus N 315 after 24 hrs by two-fold serial dilution method; assay type: functional; conditions: N 315, 24 h
Staphylococcus aureus [2] = assay: Antibacterial activity against Staphylococcus aureus ATCC 25923 after 24 hrs by two-fold serial dilution method; assay type: functional; conditions: ATCC 25923, 24 h
[3] = Inhibition of Candida tropicalis ATCC 750 chitin synthase using UDP-GlcNAc as substrate after 60 mins by microplate reader method
Candida albicans = assay: Antifungal activity against Candida albicans CMCC 76615 after 24 hrs by two-fold serial dilution method; assay type: functional; conditions: CMCC 76615, 24 h
Aspergillus flavus = assay: Antifungal activity against Aspergillus flavus ATCC 16870 after 24 hrs by two-fold serial dilution method; assay type: functional; conditions: ATCC 16870, 24 h
Cryptococcus neoformans = assay: Antifungal activity against Cryptococcus neoformans ATCC 32719 after 24 hrs by two-fold serial dilution method; assay type: functional; conditions: ATCC 32719, 24 h
Candida tropicalis = assay: Inhibition of Candida tropicalis ATCC 750 chitin synthase using UDP-GlcNAc as substrate at 300 ug/ml after 60 mins by microplate reader method
Aspergillus fumigatus = assay: Antifungal activity against Aspergillus fumigatus GIMCC 3.19 after 24 hrs by two-fold serial dilution method; assay type: functional; conditions: GIMCC 3.19, 24 h

Compound | MIC (Escherichia coli) [µg/mL] | MIC (Proteus vulgaris) [µg/mL] | MIC (Bacillus spizizenii) [µg/mL] | MIC (Pseudomonas aeruginosa) [µg/mL] | MIC (Staphylococcus aureus [1]) [µg/mL] | MIC (Staphylococcus aureus [2]) [µg/mL] | IC50 [3] [µM] | MIC (Candida albicans) [µg/mL] | MIC (Aspergillus flavus) [µg/mL] | MIC (Cryptococcus neoformans) [µg/mL] | inhibition (Candida tropicalis) [%] | MIC (Aspergillus fumigatus) [µg/mL]
CC1COc2c(N3CCN(C)CC3)c(F)cc3c(=O)c(C(=O)O)cn1c23 (stereo unspecified) [OFLOXACIN] | 0.25 (≈ 0.692 µM) | 0.25 (≈ 0.692 µM) | 0.25 (≈ 0.692 µM) | 0.25 (≈ 0.692 µM) | 1 (≈ 2.77 µM) | 1 (≈ 2.77 µM) |  |  |  |  |  | 
COC(=O)C(C)NP(=O)(OCCN(C)c1cc(=O)oc2c(C)cccc12)Oc1ccccc1 (stereo unspecified) | 128 (≈ 270 µM) | 128 (≈ 270 µM) | 512 (≈ 1080 µM) | 256 (≈ 540 µM) | 128 (≈ 270 µM) | 64 (≈ 135 µM) | 220 | 64 (≈ 135 µM) | 64 (≈ 135 µM) | 128 (≈ 270 µM) | 64 | 32 (≈ 67.4 µM)
COC(=O)C(NP(=O)(OCCN(C)c1cc(=O)oc2ccc(C)cc12)Oc1ccccc1)C(C)C (stereo unspecified) | 16 (≈ 31.8 µM) | 32 (≈ 63.7 µM) | 16 (≈ 31.8 µM) | 16 (≈ 31.8 µM) | 32 (≈ 63.7 µM) | 16 (≈ 31.8 µM) |  | 64 (≈ 127 µM) | 128 (≈ 255 µM) | 32 (≈ 63.7 µM) | 41 | 128 (≈ 255 µM)
COC(=O)C(NP(=O)(OCCN(C)c1cc(=O)oc2c(C)cccc12)Oc1ccccc1)C(C)C (stereo unspecified) | 256 (≈ 509 µM) | 256 (≈ 509 µM) | 32 (≈ 63.7 µM) | 256 (≈ 509 µM) | 32 (≈ 63.7 µM) | 128 (≈ 255 µM) |  | 128 (≈ 255 µM) | 128 (≈ 255 µM) | 128 (≈ 255 µM) | 45 | 128 (≈ 255 µM)
COC(=O)C(NP(=O)(OCCN(C)c1cc(=O)oc2ccc(C(C)(C)C)cc12)Oc1ccccc1)C(C)C (stereo unspecified) | 16 (≈ 29.4 µM) | 32 (≈ 58.8 µM) | 16 (≈ 29.4 µM) | 32 (≈ 58.8 µM) | 16 (≈ 29.4 µM) | 32 (≈ 58.8 µM) | 180 | 64 (≈ 118 µM) | 2 (≈ 3.67 µM) | 32 (≈ 58.8 µM) | 62 | 64 (≈ 118 µM)
COC(=O)CNP(=O)(OCCN(C)c1cc(=O)oc2cc(C)ccc12)Oc1ccccc1 (stereo unspecified) | 128 (≈ 278 µM) | 512 (≈ 1110 µM) | 512 (≈ 1110 µM) | 512 (≈ 1110 µM) | 256 (≈ 556 µM) | 256 (≈ 556 µM) | 320 | 32 (≈ 69.5 µM) | 64 (≈ 139 µM) | 16 (≈ 34.8 µM) | 59 | 32 (≈ 69.5 µM)
COC(=O)C(NP(=O)(OCCN(C)c1cc(=O)oc2ccccc12)Oc1ccccc1)C(C)C (stereo unspecified) | 512 (≈ 1050 µM) | 512 (≈ 1050 µM) | 128 (≈ 262 µM) | 512 (≈ 1050 µM) | 256 (≈ 524 µM) | 256 (≈ 524 µM) | 380 | 32 (≈ 65.5 µM) | 16 (≈ 32.8 µM) | 64 (≈ 131 µM) | 54 | 64 (≈ 131 µM)
COC(=O)C(C)NP(=O)(OCCN(C)c1cc(=O)oc2ccccc12)Oc1ccccc1 (stereo unspecified) | 512 (≈ 1110 µM) | 512 (≈ 1110 µM) | 512 (≈ 1110 µM) | 512 (≈ 1110 µM) | 512 (≈ 1110 µM) | 512 (≈ 1110 µM) | 150 | 32 (≈ 69.5 µM) | 64 (≈ 139 µM) | 8 (≈ 17.4 µM) | 77 | 32 (≈ 69.5 µM)
NC(=O)OC[C@H](O)[C@@H](O)[C@H](N)C(=O)N[C@H](C(=O)O)[C@H]1O[C@@H](n2cc(CO)c(=O)[nH]c2=O)[C@H](O)[C@@H]1O [POLYOXIN B] |  |  |  |  |  |  | 160 | 32 (≈ 63.1 µM) | 64 (≈ 126 µM) | 8 (≈ 15.8 µM) | 82 | 64 (≈ 126 µM)
COC(=O)C(C)NP(=O)(OCCN(C)c1cc(=O)oc2ccc(C)cc12)Oc1ccccc1 (stereo unspecified) | 16 (≈ 33.7 µM) | 512 (≈ 1080 µM) | 256 (≈ 540 µM) | 512 (≈ 1080 µM) | 256 (≈ 540 µM) | 256 (≈ 540 µM) | 260 | 64 (≈ 135 µM) | 128 (≈ 270 µM) | 32 (≈ 67.4 µM) | 61 | 64 (≈ 135 µM)
